Test results as given in paper PMC7211195 (Investigational New Drugs, 2019).
Read-outs that look alike come from different tables or passages of the source.

How the values were obtained:
[1] = Lapatinib pharmacokinetics and uptake in rat cerebrospinal fluid (CSF); format: in vivo, rats; details: male, Wistar, po, 100 mg/kg, lapatinib p.o. 100 mg/kg alone, read-out: Clapatinib in CSF, single rat
[2] = cited from earlier work
[3] = Stability of lapatinib in QC samples, BP samples and standard solutions; format: physicochemical; details: for stability, deviation: low and high QC samples
Description: Data acquisition and processing were controlled with Analyst 1.5.2 software (Sciex, Framingham, USA).

[4] = set-up: method as in PMID 25547867; details: cited from earlier work
[5] = set-up: method as in PMID 19056914; details: cited from earlier work
[6] = Lapatinib pharmacokinetics in rat blood plasma (BP), HPLC-MS/MS, noncompartmental analysis; format: in vivo, rats; details: for MRT last: read-out: MRT0-t
Method: This study was conducted on rats, which are a promising model to predict P-gp-based drug-drug interactions at the human BBB [15]. The animals were allowed to acclimate for one week before the beginning of the experiments. Adult male Wistar-strain rats (weight 470–525 g) were used in the study. The animals were maintained under standard breeding conditions with a 12/12 h light-dark cycle (lights on at 6.00 a.m., lights off at 6.00 p.m.) at constant room temperature (23 ± 2 °C), relative humidity (55 ± 10%) and ad libitum access to food and water. The experimental protocol for this study was reviewed and approved by the Local Ethics Committee. To obtain consistent data, the study was based on the required minimum number of animals and observation time. […] Three rats were used at each time point (n = 3). In total, the research was conducted on 66 animals (n = 33 in the experimental group and n = 33 in the control group).
Elacridar was freshly dissolved in a vehicle at an initial concentration of 20 mg/mL. […] A volume of 80 μL of blood was collected from each rat by cutting off a piece of its tail. The blood samples were collected into heparinized test tubes at the following time points: […], and they were immediately centrifuged at 2880 g for 10 min at 4 °C. The anaesthetized rats (anaesthetized by intramuscular administration of 50 mg/kg ketamine and 10 mg/kg xylazine) were prepared for cisterna magna puncture. The hair over the puncture was removed and the skin was disinfected with alcohol. The animals were placed in a recumbent position with an elevated rear part of the body. The animals’ heads were slightly flexed and immobilized with the operator’s left hand. The space between the occiput rostrally and the atlas (C1) of the spinal column caudally was gently palpated with the left thumb. A 0.7 × 20 G needle with polyethylene tubing (Terumo Poland, Warsaw, Poland) was gently inserted at an approximate angle of 80–90° through the skin with the operator’s right hand into the midsagittal region. The moment that dura mater perforation was perceptible, a small amount of CSF was found in the needle tubing. To sample additional CSF, a 1 mL insulin syringe (Becton Dickinson, Warsaw, Poland) was used to collect 80–120 μL of CSF by very gentle aspiration. Only clear CSF was collected for further analysis. […] The animals’ brains were immediately dissected, washed in 0.9% NaCl and divided along the longitudinal axis. One of the brain hemispheres was again rinsed three times with 5 mL of 0.9% NaCl, weighed and homogenized with 0.9% NaCl (4 mL per 1 g of BT) in an Ultra-Turrax homogenizer (Witko, Łódź, Poland). The homogenate was then centrifuged at 4500 g for 10 min. All samples of the rat BP, CSF, and BT homogenate supernatant were stored at −80 °C until analysis.
The chromatographic analysis was conducted using a 1260 Infinity system (Agilent Technologies, Santa Clara, USA) equipped with a Kinetex® C18 column (50 × 4.6 mm, 2.6 μm, Phenomenex, Torrance, USA), which was maintained at 35 °C. The mobile phase consisted of 0.1% formic acid (v/v) in water with 5 mM ammonium formate (solvent A) and acetonitrile with 10% phase A (v/v, solvent B). The analyte and internal standard (IS, erlotinib) were eluted using a gradient run of 10 min as follows: 95% A at 0–2 min; 95%–5% A at 2–4 min; 5% A at 4–5 min; 5%–95% A at 5–6 min; 95% A at 6–10 min. The flow rate and injection volume were set at 0.7 mL/min and 10 μL, respectively. The needle was washed for 30 s in a mixture of acetonitrile, methanol, isopropanol, water, and formic acid (50:20:15:15:0.25, v/v/v/v/v).

[7] = blood plasma, lapatinib 100 mg/kg oral + 5 mg/kg elacridar (IE+L)
[8] = male, Wistar, rat, plasma, oral, lapatinib 100 mg/kg + elacridar, read-out: Clapatinib in BP, S
[9] = male, Wistar, rat, plasma, oral, lapatinib 100 mg/kg + elacridar, read-out: Clapatinib in BP, single rat
[10] = male, Wistar, rat, plasma, po, 100 mg/kg, blood plasma, lapatinib 100 mg/kg oral + 5 mg/kg elacridar (IE+L)
[11] = male, Wistar, rat, plasma, po, 100 mg/kg, blood plasma, lapatinib 100 mg/kg oral alone (IIL)
[12] = male, Wistar, rat, plasma, po, 100 mg/kg, lapatinib p.o. 100 mg/kg alone, read-out: Clapatinib in BP, S (medium value)
[13] = male, Wistar, rat, plasma, po, 100 mg/kg, lapatinib p.o. 100 mg/kg alone, read-out: Clapatinib in BP, single rat

Structure (SMILES): CS(=O)(=O)CCNCc1ccc(-c2ccc3ncnc(Nc4ccc(OCc5cccc(F)c5)c(Cl)c4)c3c2)o1 [lapatinib, N-{3-Chloro-4-[(3-fluorobenzyl)oxy]phenyl}-6-[5-({[2-(methylsulfonyl)ethyl]amino}methyl)-2-furyl]-4-quinazolinamine]
- concentration at 0.25 h [1]: 4.47 ng/mL
- binds with plasma proteins [2]: 99%
- postpreparative stability, change in the concentration ([3]; BP samples and standard solutions, 24 h and 48 h in the autosampler at 4 °C): < 15%
- stability, deviation ([3]; three freeze-thaw cycles at −80 °C): < 5%
- stability, deviation ([3]; three months of storage at −80 °C): < 15%
- patients with BM responding to lapatinib therapy [4]: 2.6–6.0%
- Kp,BT ([5]; WT mice, 24-h intravenous administration): 0.04
- Kp,BT times greater than in WT mice ([5]; mdr1a/b(−/−)/bcrp(−/−) mice): 40 times
- plasma AUC0-t higher in IE+L than in IIL ([6]; BP, IE+L vs IIL group): 78.7%
- plasma AUC0-∞ higher in IE+L than in IIL ([6]; BP, IE+L vs IIL group): 155.6%
- plasma Cmax greater in IE+L than in IIL ([6]; BP, IE+L vs IIL group): 6.3%
- t0.5 prolongation when coadministered with elacridar ([6]; BP, IE+L vs IIL group): 5.2 fold
- Tmax [6, 7]: 2.50 ± 0.71 h
- t0.5 [6, 7]: 28.77 ± 6.00 h
- concentration of lapatinib after 24 h ([6]; each matrix sample (BP, CSF, BT), IIL group): undetectable
- concentration at 0.25 h [6, 8]: 780 ng/mL
- concentration at 0.25 h [6, 9]: 700 ng/mL
- concentration at 0.5 h [6, 8]: 1520 ng/mL
- concentration at 0.5 h [6, 9]: 1680 ng/mL
- concentration at 1 h [6, 8]: 1980 ng/mL
- concentration at 1 h [6, 9]: 2050 ng/mL
- concentration at 2 h [6, 8]: 3070 ng/mL
- concentration at 2 h [6, 9]: 2100 ng/mL
- concentration at 3 h [6, 8]: 2460 ng/mL
- concentration at 3 h [6, 9]: 2040 ng/mL
- concentration at 4 h [6, 8]: 1310 ng/mL
- concentration at 4 h [6, 9]: 1580 ng/mL
- concentration at 6 h [6, 8]: 1340 ng/mL
- concentration at 6 h [6, 9]: 1360 ng/mL
- concentration at 8 h [6, 8]: 1780 ng/mL
- concentration at 12 h [6, 8]: 2300 ng/mL
- concentration at 12 h [6, 9]: 2280 ng/mL
- concentration at 24 h [6, 8]: 1230 ng/mL
- concentration at 24 h [6, 9]: 1300 ng/mL
- Cmax ([6]; male, Wistar, rat, plasma, po, 100 mg/kg): 3260 ± 810 ng/mL
- AUC(0-inf) [6, 10]: 95100 ng·h/mL
- AUC(0-t) [6, 10]: 43600 ng·h/mL
- k el [6, 10]: 5.56e-06 s⁻¹
- MRT last [6, 10]: 11.1 ± 0.5 h
- AUC(0-inf) [6, 11]: 37200 ng·h/mL
- AUC(0-t) [6, 11]: 24400 ng·h/mL
- k el [6, 11]: 3.61e-05 s⁻¹
- MRT last [6, 11]: 5.7 ± 0.43 h
- concentration at 0.25 h [6, 12]: 650 ng/mL
- concentration at 0.25 h [6, 13]: 530 ng/mL
- concentration at 0.5 h [6, 12]: 1330 ng/mL
- concentration at 0.5 h [6, 13]: 1210 ng/mL
- concentration at 1 h [6, 12]: 2050 ng/mL
- concentration at 1 h [6, 13]: 1830 ng/mL
- concentration at 2 h [6, 12]: 2210 ng/mL
- concentration at 2 h [6, 13]: 1950 ng/mL
- concentration at 3 h [6, 12]: 2380 ng/mL
- concentration at 4 h [6, 12]: 3260 ng/mL
- concentration at 4 h [6, 13]: 3830 ng/mL
- concentration at 6 h [6, 12]: 1940 ng/mL
- concentration at 6 h [6, 13]: 1560 ng/mL
- concentration at 8 h [6, 12]: 1940 ng/mL
- concentration at 8 h [6, 13]: 2130 ng/mL
- concentration at 12 h [6, 12]: 1500 ng/mL
- Tmax ([6]; male, Wistar, rat, plasma, po, 100 mg/kg, read-out: tmax): 4 h
